Experimental data: patent US20230321237A1, “REGULATORY T CELL EPITOPES” (EPIVAX, INC., priority 2020, published 2023)

What was measured:
[1] = molecular target: T1, Recombinant human cathepsin B (Homo sapiens, UniProt P07858); test: Cathepsin B cleavage of the Val-Cit site; format: biochemical; conditions: 0.01 ug rhCathepsin B, 10 uM peptide substrate, RT 15 min, mass spec
T1 construct: purchased R&D Systems 953-CY
Method: Recombinant human cathepsin B (catalog 953-CY of R&D Systems™) can be used to evaluate the cleavage of the Val-Cit site engineered into the Tregitope peptide. The activity assay protocol can be used according to the R&D Systems™'s recommendations with final assay conditions of 0.01 ug rhCathepsin B and 10 uM of peptide substrate. After incubation of Cathepsin B with purified peptides (at RT for 15 min). The peptide can be evaluated by mass spec using the Qstar XL Pro™.

[2] = system: CD4+ effector memory T cells in PBMC; format: cell-based, human
[3] = system: CD4 T cells in donor PBMC stimulated with Tetanus Toxoid; format: cell-based, human
[4] = system: Class II HLA alleles HLA-DRB1*0101, *0301, *0401, *0701, *0801, *0901, *1101, *1301, *1501; test: HLA Binding Assay with soluble HLA molecules (competition with labeled control peptide); parameters: species or system human; conditions: FIG. 18
Method: HLA Binding Assay. Binding activity was analyzed at EpiVax (Providence, Rhode Island). The binding assay used (Steere A C et al., (2006), J Exp Med, […]:961-73) yielded an indirect measure of peptide-MHC affinity. Soluble HLA molecules were loaded onto a 96-well plate with the unlabeled experimental Tregitopes and labeled control peptide. Once the binding mixture reached steady equilibrium (at 24 hours), the HLA-Tregitope complexes were captured on an ELISA plate coated with anti-human DR antibody and detected with a Europium-linked probe for the label (PerkinElmer, Waltham, MA). Time-resolved fluorescence measuring bound labeled control peptide is assessed by a SpectraMax® M5 unit (Spectramax, Radnor, PA). Binding of experimental Tregitopes was expressed as the percent inhibition of the labeled control peptide ([…]). The percent inhibition values for each experimental Tregitope (across a range of molar concentrations) were used to calculate the concentration at which it inhibits 50% of the labeled control […] specific binding, i.e. the Tregitope's IC50.
Selected experimental Tregitopes were solvated in DMSO. The diluted Tregitopes were then mixed with binding reagents in aqueous buffering solution, yielding a range of final concentrations from 100,000 nM down to 100 nM. […]

[5] = system: soluble HLA class II molecules (human DR molecules); conditions: cited from earlier work
[6] = system: PBMCs from lupus patients; conditions: cited from earlier work
[7] = CRIM-negative infantile Pompe disease patients; cited from earlier work

Substance: PEG12
- cleavage of the Val-Cit site by Cathepsin B [1]: successful cleavage

Substance: Tetanus Toxoid: proliferation stimulant (Astarte Biologics) in the TTBSA [reference compound]
- activated (CD25 high) CD4 T cells also proliferating (CFSE low) [2]: approximately 90%
- CD4 proliferation caused by the stimulant [3]: caused CD4 proliferation

Substance: KDILTLRLDVMMETE (listed as Homo sapiens) [SEQ ID NO: 4]
- effect on CD4 proliferation [3]: little effect
- initial HLA binding results compared with prediction [4]: high false negative

Substance: SHRLLAVCALVSLATAA (listed as Homo sapiens) [SEQ ID NO: 1]
- suppression of activated effector CD4+ T cells (CD4+/CD25hi/FoxP3int) reacting to Tetanus Toxoid [2]: Suppressed
- ratio of T regulatory cells to T effector cells [3]: best ratios

Substance: AAALVSLATAALLGHI [SEQ ID NO: 3]
- effect on CD4 proliferation [3]: little effect

Substance: RIHMVYSKRSGKPRGYAFIEY [peptide 131-151]
- binding to human DR molecules [5]: binds to a large panel of human DR molecules
- randomly selected lupus patients whose PBMCs contain T cells that proliferate in response to the peptide [6]: 40%

Substance: AHGVFLLNSNAMDVVLQ (listed as Homo sapiens) [SEQ ID NO: 5]
- ratio of T regulatory cells to T effector cells [3]: good ratios

Substance: PRELSGSSPVLEETH (listed as Homo sapiens) [SEQ ID NO: 7]
- Tregitope suppressive activity [3]: demonstrated Tregitope suppressive activity
- effect on CD4 proliferation [3]: little effect
- inhibition of CD4 T cell proliferation (CFSE low) [3]: little effect

Substance: rhGAA: recombinant human acid alpha-glucosidase for enzyme replacement therapy
- antibody titers reactive to administered rhGAA [7]: high antibody titers

Substance: ILTIHFTGHSFIYGK (listed as Homo sapiens) [SEQ ID NO: 74, known Tregitope used as positive control in the TTBSA, reference compound]
- inhibition of CD4 T cell proliferation (CFSE low) [3]: successfully inhibit
- proliferation of regulatory T cells [3]: increased proliferation
